Experimental data: ChEMBL document CHEMBL1201862, “PubChem BioAssay data set” (2004)
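Briefly, cells in 96-well plates were exposed to five compound concentrations for 48 h, and endpoints were estimated by linear interpolation. GI50: concentration for 50% inhibition of growth.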 The source made the active and inactive calls. Rule as the data show it: active = GI50 up to about 1.1 µM and inactive = higher.

Columns and labels:
Assay in all cases: inhibition of tumour cell growth, NCI panel, 48 h
LOX IMVI = test system: LOX IMVI
HT-29 = test system: HT-29
SR = test system: SR
NCI-H522 = test system: NCI-H522
DMS-273 = test system: DMS-273
EKVX = test system: EKVX
CCRF-CEM = test system: CCRF-CEM
TK-10 = test system: TK-10
OVCAR-5 = test system: OVCAR-5
IGROV-1 = test system: IGROV-1
HOP-62 = test system: HOP-62
OVCAR-4 = test system: OVCAR-4
M14 = test system: M14
RPMI-8226 = test system: RPMI-8226
SNB-75 = test system: SNB-75
MCF7 = test system: MCF7
DU-145 = test system: DU-145
NCI/ADR-RES = test system: NCI/ADR-RES
MDA-MB-435 = test system: MDA-MB-435
PC-3 = test system: PC-3

| SMILES | GI50 (LOX IMVI) | GI50 (HT-29) | GI50 (SR) | GI50 (NCI-H522) | GI50 (DMS-273) | GI50 (EKVX) | GI50 (CCRF-CEM) | GI50 (TK-10) | GI50 (OVCAR-5) | GI50 (IGROV-1) | GI50 (HOP-62) | GI50 (OVCAR-4) | GI50 (M14) | GI50 (RPMI-8226) | GI50 (SNB-75) | GI50 (MCF7) | GI50 (DU-145) | GI50 (NCI/ADR-RES) | GI50 (MDA-MB-435) | GI50 (PC-3) |
| --- | --- | --- | --- | --- | --- | --- | --- | --- | --- | --- | --- | --- | --- | --- | --- | --- | --- | --- | --- | --- |
| COC(=O)C1(C(=O)OC)CC(=O)c2cc3c(cc2-c2c(cc(OC)c(OC)c2OC)C1)OCO3 | > 211 µM (inactive) | > 211 µM (inactive) | 70.3 µM (inactive) | 96.4 µM (inactive) | 124 µM (inactive) | > 211 µM (inactive) | 173 µM (inactive) | > 211 µM (inactive) | 88.3 µM (inactive) | > 211 µM (inactive) | > 211 µM (inactive) | – | – | – | – | – | – | – | – | – |
| Cc1cc(C)c(S(=O)(=O)ONC(=O)OC(C)(C)C)c(C)c1 | > 100 µM (inactive) | > 100 µM (inactive) | – | > 100 µM (inactive) | > 100 µM (inactive) | > 100 µM (inactive) | > 100 µM (inactive) | > 100 µM (inactive) | > 100 µM (inactive) | > 100 µM (inactive) | > 100 µM (inactive) | > 100 µM (inactive) | > 100 µM (inactive) | > 100 µM (inactive) | > 100 µM (inactive) | – | – | – | – | – |
| N[C@H](C(=O)O)[C@@H](Cl)CC(=O)O | > 100 µM (inactive) | > 100 µM (inactive) | – | > 100 µM (inactive) | > 100 µM (inactive) | > 100 µM (inactive) | > 100 µM (inactive) | > 100 µM (inactive) | > 100 µM (inactive) | > 100 µM (inactive) | > 100 µM (inactive) | > 100 µM (inactive) | > 100 µM (inactive) | > 100 µM (inactive) | > 100 µM (inactive) | – | – | – | – | – |
| Nc1nc(O)c2[nH]nnc2n1 [8-AZAGUANINE] | 0.223 µM (active) | 26.1 µM (inactive) | 2.42 µM (inactive) | 13.9 µM (inactive) | 0.634 µM (active) | 11.4 µM (inactive) | 0.242 µM (active) | 0.408 µM (active) | 21.9 µM (inactive) | 63.8 µM (inactive) | 0.326 µM (active) | 12.9 µM (inactive) | 0.292 µM (active) | 0.234 µM (active) | 1.54 µM (inactive) | 40.8 µM (inactive) | 0.684 µM (active) | 1.93 µM (inactive) | 0.265 µM (active) | 0.855 µM (active) |
| COc1ccccc1NC(=O)C1=C(C)NC(C)=C(C(=O)Nc2ccccc2OC)C1c1ccc(C)cc1 | > 100 µM (inactive) | > 100 µM (inactive) | – | 60.7 µM (inactive) | 40 µM (inactive) | 47.6 µM (inactive) | – | 69.5 µM (inactive) | 70.3 µM (inactive) | 58.7 µM (inactive) | > 100 µM (inactive) | 43.4 µM (inactive) | 64.6 µM (inactive) | 37.8 µM (inactive) | 58.5 µM (inactive) | – | – | – | – | – |
| COc1cccc2c1C(=N)c1c(O)c3c(c(O)c1C2=O)C[C@@](O)(C(C)=O)C[C@@H]3OC1CC(N)C(O)C(C)O1 (stereo not given in full) | 0.00638 µM (active) | 0.4 µM (active) | 0.00466 µM (active) | 0.163 µM (active) | 0.0766 µM (active) | 1.42 µM (inactive) | 0.0001 µM (active) | 1.31 µM (inactive) | 0.000445 µM (active) | 1.38 µM (inactive) | 0.125 µM (active) | 1.83 µM (inactive) | 0.00957 µM (active) | 0.000159 µM (active) | 0.00764 µM (active) | 0.805 µM (active) | 0.00386 µM (active) | 0.000159 µM (active) | < 0.01 µM (active) | < 0.01 µM (active) |
| CN(C)c1nc(N(C)C)n2nc(-c3ccccc3[N+](=O)[O-])nc2n1 | > 100 µM (inactive) | > 100 µM (inactive) | > 100 µM (inactive) | > 100 µM (inactive) | 33.5 µM (inactive) | > 100 µM (inactive) | > 100 µM (inactive) | > 100 µM (inactive) | > 100 µM (inactive) | > 100 µM (inactive) | > 100 µM (inactive) | > 100 µM (inactive) | > 100 µM (inactive) | 89.7 µM (inactive) | > 100 µM (inactive) | – | – | – | – | – |
| COC1=CC(=O)[C@]2(C)[C@H](C1=O)C(C)[C@H]2c1ccc(OC)cc1 (stereo not given in full) | > 100 µM (inactive) | > 100 µM (inactive) | > 100 µM (inactive) | > 100 µM (inactive) | > 100 µM (inactive) | > 100 µM (inactive) | > 100 µM (inactive) | > 100 µM (inactive) | > 100 µM (inactive) | > 100 µM (inactive) | > 100 µM (inactive) | > 100 µM (inactive) | > 100 µM (inactive) | > 100 µM (inactive) | > 100 µM (inactive) | – | – | – | – | – |
| CCCC(O)c1ccc2[nH]c3c(C)cc([N+](=O)[O-])c(C)c3c2c1 (stereo not given) | > 100 µM (inactive) | 68.1 µM (inactive) | > 100 µM (inactive) | > 100 µM (inactive) | 21.3 µM (inactive) | > 100 µM (inactive) | > 100 µM (inactive) | 23 µM (inactive) | > 100 µM (inactive) | – | > 100 µM (inactive) | > 100 µM (inactive) | > 100 µM (inactive) | 62.1 µM (inactive) | > 100 µM (inactive) | – | – | – | – | – |
| CCOC(=O)C(CC/C=C\c1ccccc1)N1CCC[C@H]1C(=O)OC (stereo not given in full) | > 100 µM (inactive) | > 100 µM (inactive) | 40 µM (inactive) | > 100 µM (inactive) | > 100 µM (inactive) | > 100 µM (inactive) | 94.8 µM (inactive) | > 100 µM (inactive) | > 100 µM (inactive) | > 100 µM (inactive) | > 100 µM (inactive) | > 100 µM (inactive) | > 100 µM (inactive) | 29.7 µM (inactive) | > 100 µM (inactive) | – | – | – | – | – |
| C[Si](C)(C)/N=C1\N2C(=NC1(C(F)(F)F)C(F)(F)F)Sc1ccccc12 | > 50 µM (inactive) | > 50 µM (inactive) | > 50 µM (inactive) | > 50 µM (inactive) | > 50 µM (inactive) | > 50 µM (inactive) | > 50 µM (inactive) | > 50 µM (inactive) | > 50 µM (inactive) | > 50 µM (inactive) | > 50 µM (inactive) | > 50 µM (inactive) | > 50 µM (inactive) | > 50 µM (inactive) | > 50 µM (inactive) | – | – | – | – | – |
| O=C1C(Cl)C(c2cccc(O)c2)N1n1cnc2ccccc2c1=O (stereo not given) | > 100 µM (inactive) | > 100 µM (inactive) | 26 µM (inactive) | > 100 µM (inactive) | > 100 µM (inactive) | 64.3 µM (inactive) | – | > 100 µM (inactive) | > 100 µM (inactive) | 60.5 µM (inactive) | > 100 µM (inactive) | > 100 µM (inactive) | > 100 µM (inactive) | 40.7 µM (inactive) | 27.9 µM (inactive) | – | – | – | – | – |
| Cc1nc2c(nc1C)C(=O)c1cc(O)ccc1C2=O | 53.1 µM (inactive) | 35.2 µM (inactive) | 51.1 µM (inactive) | 57.4 µM (inactive) | > 59 µM (inactive) | > 100 µM (inactive) | 48.9 µM (inactive) | > 100 µM (inactive) | > 100 µM (inactive) | 68.9 µM (inactive) | 69.5 µM (inactive) | > 85.5 µM (inactive) | > 77.6 µM (inactive) | > 51.1 µM (inactive) | > 100 µM (inactive) | – | – | – | – | – |
| CC1CC(=O)c2c(ccc3c2C(=O)c2cccc(O)c2C3=O)C1 (stereo not given) | 4.47 µM (inactive) | 3.74 µM (inactive) | 3.54 µM (inactive) | 4.37 µM (inactive) | 4.48 µM (inactive) | 14.6 µM (inactive) | 1.95 µM (inactive) | > 10 µM (inactive) | 20.6 µM (inactive) | > 10 µM (inactive) | > 10 µM (inactive) | 12.4 µM (inactive) | 1.97 µM (inactive) | 3.34 µM (inactive) | 10.4 µM (inactive) | – | – | – | – | – |
| COc1cccc2c1CCc1ccccc1CC2=O | > 100 µM (inactive) | > 100 µM (inactive) | > 100 µM (inactive) | > 100 µM (inactive) | > 100 µM (inactive) | > 100 µM (inactive) | > 100 µM (inactive) | > 100 µM (inactive) | > 100 µM (inactive) | > 100 µM (inactive) | – | 39.2 µM (inactive) | > 100 µM (inactive) | > 100 µM (inactive) | > 100 µM (inactive) | – | – | – | – | – |
| O=C(N/C(=C\c1ccc(/C=C(\NC(=O)c2ccccc2)c2nc3ccccc3s2)cc1)c1nc2ccccc2s1)c1ccccc1 | 4.21 µM (inactive) | 3.73 µM (inactive) | – | 2.13 µM (inactive) | 3.71 µM (inactive) | 1.83 µM (inactive) | 1.56 µM (inactive) | 12.7 µM (inactive) | 17.2 µM (inactive) | 3.85 µM (inactive) | 18.4 µM (inactive) | 5.08 µM (inactive) | 3.42 µM (inactive) | 3.64 µM (inactive) | 5.48 µM (inactive) | – | – | – | – | – |
| O=[N+]([O-])c1ccc2nc(/C(=N/Nc3ccccc3)C(O)c3ccco3)c(O)nc2c1 (stereo not given) | 72.4 µM (inactive) | > 100 µM (inactive) | 55.2 µM (inactive) | 9.55 µM (inactive) | > 100 µM (inactive) | 39 µM (inactive) | 27.2 µM (inactive) | – | – | > 100 µM (inactive) | 37.6 µM (inactive) | > 100 µM (inactive) | > 100 µM (inactive) | 58.3 µM (inactive) | > 100 µM (inactive) | – | – | – | – | – |
| COC(=O)C1=C(C(=O)OC)C(C(=O)OC)C(C(=O)OC)=C1C(=O)OC | > 100 µM (inactive) | > 100 µM (inactive) | – | > 100 µM (inactive) | > 100 µM (inactive) | > 100 µM (inactive) | > 100 µM (inactive) | > 100 µM (inactive) | > 100 µM (inactive) | > 100 µM (inactive) | > 100 µM (inactive) | > 100 µM (inactive) | > 100 µM (inactive) | > 100 µM (inactive) | > 100 µM (inactive) | – | – | – | – | – |
